From patent EP0437336B1, “Biophosphoryl hydrazines and their use as pesticides” (priority 1990, dated 1991)
Values after ≈ are worked out from the molar mass of the structure shown. Where two headings read alike, the source gives them in different places.

Legend:
[1] = tested on: Two-Spotted Spider Mite; assay: Biological Method D: Foliar Insecticidal Activity Test, mite test; format: in vivo, Tetranychus urticae; parameters: key to LC50 TSM: I = inactive at concentration listed; settings: Two-Spotted Spider Mite; for LC50: Tetranychus urticae
[2] = tested on: Green Peach Aphid; assay: Biological Method D: Foliar Insecticidal Activity Test, aphid test; format: in vivo, Myzus persicae; settings: Myzus persicae, Green Peach Aphid
[3] = tested on: Southern Armyworm; assay: Biological Method D: Foliar Insecticidal Activity Test, Southern Armyworm test; format: in vivo, Spodoptera eridania; settings: Spodoptera eridania, Southern Armyworm
[4] = tested on: Southern Armyworm; assay: as above; format: in vivo, Spodoptera eridania; parameters: key: I = inactive at concentration listed
[5] = tested on: Boll Weevil; assay: Biological Method D: Foliar Insecticidal Activity Test, boll weevil test; format: in vivo, Anthonomous grandis; parameters: key: I = inactive at concentration listed
[6] = tested on: southern corn rootworm, Diabrotica undecimpunctata howardi; settings: for foliar systemic nonagressive Method B crw % control at 0.56 kg/ha (0.5 lb/acre): percent control relative to infested check, from root damage ratings, 14 days post-spraying
[7] = tested on: southern corn rootworm, Diabrotica undecimpunctata howardi; assay: Biological Method A: Corn Rootworm Screening Test (treated non-aggressive soil); settings: soil concentration giving 90% mortality, 10 days at 27°C
[8] = tested on: Mexican Bean Beetle; assay: Biological Method D: Foliar Insecticidal Activity Test, Mexican Bean Beetle test; format: in vivo, Epilachna varivestis; settings: Epilachna varivestis, Mexican Bean Beetle
[9] = tested on: Boll Weevil; assay: Biological Method D: Foliar Insecticidal Activity Test, boll weevil test; format: in vivo, Anthonomous grandis; settings: Boll Weevil
[10] = tested on: Green Peach Aphid; assay: Biological Method D: Foliar Insecticidal Activity Test, aphid test; format: in vivo, Myzus persicae; parameters: key: I = inactive at concentration listed
[11] = tested on: southern corn rootworm, Diabrotica undecimpunctata howardi; settings: at-planting soil application
[12] = tested on: Boll Weevil; assay: Biological Method D: Foliar Insecticidal Activity Test, boll weevil test; format: in vivo, Anthonomous grandis; parameters: key: I = inactive at concentration tested; settings: compounds a-r
Protocol: (§1) Biological Method D: Foliar Insecticidal Activity Test
(§2) In evaluating the foliar insecticidal activity of the compounds of this invention against insects and mites, the following test procedures were employed.
(§3) Not all compounds were tested at each of the several concentrations stated above. Test concentrations of a compound were selected as those most likely to differentiate dose response of a particular compound toward a particular test insect.
(§4) Initial evaluations were made on one or more of the following pests:
For the boll weevil test, 10 adult weevils were placed in a 0.24 ℓ (0.5 pint) glass Mason jar containing a small cube of apple. The weevils were confined to the jar by fiberglass screen mesh secured by a screw-type rim cap. The jars were then sprayed with the test solution using a rotating turntable; directing the spray through the mesh into the jar. The percentage killed was determined after forty-eight and ninety six hours.
(§5) The mortalities obtained in this manner were plotted on logarithmic probability paper.
(§6) The rotating turntable consists of a fixed, continuously operating spray nozzle under which targets are rotated at a fixed speed and distance. If the target is a Petri dish (such as for the bean beetle, armyworm, mite, or aphid tests), the distance from the nozzle is 38.1 cm (15 inches). If the target is a Mason jar (such as for the boll weevil test), the distance from the nozzle is 17.8 cm (7 inches). The nozzle is located 8 inches from the rotating shaft. The targets on individual platforms revolve around the shaft at 1 revolution per 20 seconds but only a brief portion of this time occurs in the spray path. Targets pass only once under the nozzle and then are removed to drying hoods.
(§7) The nozzle used is a 1/4 JCO Spraying Systems (Wheaton, Illinois) air atomizing nozzle equipped with a No. 2850 fluid cap and a No. 70 air cap. At the 68.95 x 10³ Pa gauge (10 psig) air pressure used and with liquid siphon feed, 1.89 ℓ/hr [0.5 GPH (gallons per hour)] are delivered in a round spray pattern with a 21 degree spray angle. Targets are misted with spray droplets to the point that the droplets coalesce to form a uniform thin film insufficient to drown test organisms.

[13] = tested on: Southern Armyworm; assay: Biological Method D: Foliar Insecticidal Activity Test, Southern Armyworm test; format: in vivo, Spodoptera eridania; parameters: key: I = inactive at concentration tested; settings: compounds a-r
Protocol: as §1, §2, §3, §4
For the Mexican Bean Beetle and Southern armyworm tests, individual lima bean (Phaseolus limeniss var. Woods' Prolific) leaves were placed on moistened pieces of filter paper in Petri dishes. The leaves were then sprayed with the test solution using a rotating turntable and allowed to dry. The dishes were then infested with 10 third instar larvae of either the Mexican Been Beetle or the Southern Armyworm. The dishes were then covered. Percent mortality was determined for each species and spray concentration at 48 and 96 hours after treatment.
as §5, §6, §7

[14] = tested on: Green Peach Aphid; assay: Biological Method D: Foliar Insecticidal Activity Test, aphid test; format: in vivo, Myzus persicae; parameters: key: I = inactive at concentration tested; settings: compounds a-r
Protocol: as §1, §2, §3, §4
For the aphid test, infested broccoli (Brassica oleracea italica var. DiCicco) leaves containing about 50 aphids were placed in a Petri dish lid on a moistened piece of cotton. The leaves were then sprayed to thorough wetness with the test solution using a rotating turntable, held for twenty-four hours and then the percentage killed was determined.
as §5, §6, §7

[15] = Method D foliar test, 96 hrs, read-out: LC50 AW 96 hrs
[16] = Method D foliar test, read-out: LC50 TSM
[17] = Method D foliar test, 48 hrs, read-out: LC50 BB 48 hrs.
[18] = Method D foliar test, 96 hrs, read-out: LC50 BB 96 hrs
[19] = foliar, compounds a-r, read-out: LC 50 TSM
[20] = foliar, 48 hrs, compounds a-r, read-out: LC 50 BB 48 hrs.
[21] = foliar, 96 hrs, compounds a-r, read-out: LC 50 BB 96 hrs.
[22] = foliar, 48 hrs, compounds a-r, read-out: LC 50 AW 48 hrs.
[23] = foliar, 96 hrs, compounds a-r, read-out: LC 50 AW 96 hrs.

Row | Compound | LC50 AW 48 hrs [4] | LC50 BW 48 hrs [5] | LC50 BW 96 hrs [5] | foliar systemic nonagressive Method B crw % control at 0.56 kg/ha (0.5 lb/acre) [6] | primary nonagressive Method A crw LC90 [7] | LC50 [1, 19] | LC50 ([2]; foliar, compounds a-r) | LC50 [8, 20] | LC50 [8, 21] | LC50 BW 48 hrs [12] | LC50 BW 96 hrs [12] | LC50 AW 48 hrs [13] | LC50 AW 96 hrs [13] | LC50 GPA [14] | further results
1 | CCOP(=S)(NNP(=S)(OCC)OCC)OCC [Compound 1, reference compound] | I | I | I | 16% | 0.5 ppm |  |  |  |  |  |  |  |  |  | LC50 TSM ([1]; Method D foliar test): I; LC50 ([2]; Method D foliar test): 500 µg/mL (≈ 1490 µM); LC50 [3, 15]: 500 µg/mL (≈ 1490 µM)
2 | CCOP(=O)(NNP(=S)(OCC)OCC)OCC [Compound 2, reference compound] | I | I | I | 0% | 0.87 ppm |  |  |  |  |  |  |  |  |  | LC50 [1, 16]: 540 µg/mL (≈ 1690 µM); LC50 ([2]; Method D foliar test): 150 µg/mL (≈ 468 µM); LC50 AW 96 hrs [4]: I
3 | CCOP(=S)(NNP(=S)(OCC)OCC(C)C)OCC (centres unmarked) [Compound 11, N-(O,O-diethylthiophosphoryl) N′-(O-ethyl O-isobutylthiophosphoryl) hydrazine] | I | I |  | 53% | <0.1 ppm |  |  |  |  |  |  |  |  |  | LC50 TSM ([1]; Method D foliar test): I; LC50 [8, 17]: 150 µg/mL (≈ 412 µM); LC50 [8, 18]: 60 µg/mL (≈ 165 µM); LC50 BW 96 hrs ([9]; Method D foliar test): 740 ppm; LC50 GPA [10]: I; LC50 AW 96 hrs [4]: I; secondary aggressive Method C crw LC50 ([11]; rated 17 days post-infestation): 0.36 kg/ha; secondary aggressive Method C crw LC50 ([11]; value in brackets): 0.32 lb/acre
4 | CCCOP(=S)(NNP(=S)(OCC)SC(C)C)OCCC (centres unmarked) [Compound 23] | I | I | I |  | 0.55 ppm |  |  |  |  |  |  |  |  |  | LC50 [1, 16]: 150 µg/mL (≈ 380 µM); LC50 ([2]; Method D foliar test): 150 µg/mL (≈ 380 µM); LC50 [8, 17]: 62 µg/mL (≈ 157 µM); LC50 [8, 18]: 78 µg/mL (≈ 198 µM); LC50 AW 96 hrs [4]: I; pest or weed control at 560 g/ha ([6]; Diabrotica undecimpunctata, in Zea mays, foliar, 336 h, read-out: foliar systemic nonagressive Method B crw % control at 0.56 kg/ha (0.5 lb/acre)): 16%
5 | CCCOP(=S)(NNP(=S)(OCC)OCCC)OCC (centres unmarked) [Compound 29, reference compound] |  | I | I | 38% | 0.09 ppm |  |  |  |  |  |  |  |  |  | LC50 [1, 16]: 150 µg/mL (≈ 412 µM); LC50 [8, 17]: 150 µg/mL (≈ 412 µM); LC50 [8, 18]: 150 µg/mL (≈ 412 µM); LC50 ([3]; Method D foliar test, 48 hrs, read-out: LC50 AW 48 hrs): 420 µg/mL (≈ 1150 µM); LC50 [3, 15]: 180 µg/mL (≈ 494 µM); LC50 GPA [10]: I; secondary aggressive Method C crw LC50 ([11]; rated 17 days post-infestation): ~3.03 kg/ha; secondary aggressive Method C crw LC50 ([11]; value in brackets): ~2.7 lb/acre
6 | CCOP(=S)(NN(C)P(=S)(OCC)OCC)OCC [a, N,N′-bis-(O,O-diethylthiophosphoryl) N-methyl hydrazine] |  |  |  |  |  | 150 µg/mL (≈ 428 µM) | 150 µg/mL (≈ 428 µM) | 500 µg/mL (≈ 1430 µM) | 420 µg/mL (≈ 1200 µM) | I | I |  |  |  | LC50 [3, 22]: 150 µg/mL (≈ 428 µM); LC50 [3, 23]: 150 µg/mL (≈ 428 µM)
7 | CCOP(=S)(OCC)N(C)N(C)P(=S)(OCC)OC(C)C (centres unmarked) [b, N-(O,O-diethylthiophosphoryl) N′-(O-ethyl O-isopropylthiophosphoryl) N,N′-dimethyl hydrazine] |  |  |  |  |  | 5.5 µg/mL (≈ 14.5 µM) | 36 µg/mL (≈ 95.1 µM) | 150 µg/mL (≈ 396 µM) | 150 µg/mL (≈ 396 µM) |  |  | I | I |  | LC50 BW 48 hrs ([9]; compounds a-r): 740 ppm; LC50 BW 96 hrs ([9]; compounds a-r): 150 ppm
8 | CCCOP(=S)(NN(C)P(=S)(OCC)OCC)OCC (centres unmarked) [c, N-(O,O-diethylthiophosphoryl) N′-(O-ethyl O-propylthiophosphoryl) N-methyl hydrazine] |  |  |  |  |  | 150 µg/mL (≈ 412 µM) | 290 µg/mL (≈ 796 µM) | 150 µg/mL (≈ 412 µM) | 150 µg/mL (≈ 412 µM) | I | I |  |  |  | LC50 [3, 22]: 150 µg/mL (≈ 412 µM); LC50 [3, 23]: 150 µg/mL (≈ 412 µM)
9 | COP(=S)(NN(C)P(=S)(OC)OC)OC [h] |  |  |  |  |  |  |  |  |  | I | I | I | I | I | 
10 | CCOP(=S)(NN(C)P(=S)(OCC)OCC)OCC(C)(C)C (centres unmarked) [j] |  |  |  |  |  |  |  |  |  | I | I | I | I | I | 
11 | CCOP(=O)(SC(C)CC)N(C)NP(=S)(OCC)OCC(C)(C)C (centres unmarked) [k] |  |  |  |  |  |  | 300 µg/mL (≈ 713 µM) |  | 52 µg/mL (≈ 124 µM) | I | I | I | I |  | 
12 | CCOP(=O)(SC(C)CC)N(C)N(C)P(=S)(OC)OC (centres unmarked) [m] |  |  |  |  |  | 150 µg/mL (≈ 412 µM) |  | 600 µg/mL (≈ 1650 µM) | 38 µg/mL (≈ 104 µM) |  |  | I | I | I | LC50 BW 48 hrs ([9]; compounds a-r): 740 ppm; LC50 BW 96 hrs ([9]; compounds a-r): 740 ppm
13 | CCOP(=S)(NN(C)P(=S)(OC)OC)OCC(C)(C)C (centres unmarked) [r] |  |  |  |  |  |  |  |  |  |  |  | I | I | I | 
